{"source": "patent US12544373B2", "about": "“Treatment of cancer, inflammatory diseases and autoimmune diseases” (Usher III Initiative, Inc., priority 2020, dated 2026)", "key": {"[1]": {"system": "MEXF 1341", "experiment": "CellTiter-Blue Cell Viability Assay (Example 2), melanoma", "assay_type": "cell-based, human", "conditions": "for T/C %: 72 h", "excerpt": "(§1) The CellTiter-Blue® Cell Viability Assay was used to assess the viability of cells from various cancer cell lines, in the presence or absence of Compound 85 (at different concentrations). This assay provides a homogeneous, fluorometric method for estimating the number of viable cells present in multi-well plates. Viable cells retain the ability to reduce resazurin to resorufin, which is highly fluorescent. […] The fluorescence produced is proportional to the number of viable cells. There is a linear relationship between cell number and fluorescence.\n(§2) Cancer cells (see Table 6) were harvested from exponential phase cultures, counted and plated in 96 well flat-bottom microtiter plates, at a cell density 6,000-20,000 cells/well, depending on the cell line's growth rate. The culture medium was supplemented with 10% (v/v) foetal calf serum and 50 μg/mL gentamicin (140 μL/well). Cultures were incubated at 37° C. and 5% CO2 in a humidified atmosphere.\n(§3) Compound 85 was serially diluted in DMSO, and five Compound 85 concentrations in half-log increments were used: 0.03 μM, 0.09 μM, 0.30 μM, 1.0 μM, and 3.0 μM. After 24 h, 10 μL of Compound 85 (dissolved in DMSO) or control (DMSO) medium were added, in duplicates, and left on the cells for another 72 h. Compound 85 solutions were added to the assay plates using a Tecan Freedom EVO 200 robotic platform. The DMSO concentration was kept constant at 0.3% v/v across the assay plate.\n(§4) After incubation of up to 72 hours, fluorescence (FU) was measured using the EnSpire® multimode plate reader (Perkin Elmer) (excitation λ=570 nm, emission λ=600 nm).\n(§5) Cancer cell lines used: Compound 85's anti-cancer effect was tested in 20 human cancer-cell lines representing nine cancer types (Table 6).\n(§6) The percentage of viable cells in the presence of Compound 85 (Test condition, T), at different concentrations, are presented in Table 7 and expressed as a percentage of the number of viable cells in the presence of DMSO without Compound 85 (Control condition, C).\n(§7) The relative IC50 is determined as the Compound 85 concentration giving a response halfway between the maximum cell viability signal (i.e., a 100% cell viability, no Compound 85 response) and the minimal viability signal (i.e. maximum cell viability inhibition achieved by Compound 85), in a sigmoidal concentration-effect curve.\n(§8) The absolute IC50 is determined as the concentration that is associated with a T/C ratio of 50%."}, "[2]": {"system": "MEXF 1737", "experiment": "CellTiter-Blue Cell Viability Assay (Example 2), melanoma", "assay_type": "cell-based, human", "conditions": "for T/C %: 72 h", "excerpt": "as §1, §2, §3, §4, §5, §6, §7, §8"}, "[3]": {"system": "PRXF DU-145", "experiment": "CellTiter-Blue Cell Viability Assay (Example 2), prostate", "assay_type": "cell-based, human", "conditions": "for T/C %: 72 h", "excerpt": "as §1, §2, §3, §4, §5, §6, §7, §8"}, "[4]": {"system": "PRXF PC-3", "experiment": "CellTiter-Blue Cell Viability Assay (Example 2), prostate", "assay_type": "cell-based, human", "conditions": "for T/C %: 72 h", "excerpt": "as §1, §2, §3, §4, §5, §6, §7, §8"}, "[5]": {"system": "SXFO 678", "experiment": "CellTiter-Blue Cell Viability Assay (Example 2), osteosarcoma", "assay_type": "cell-based, human", "conditions": "for T/C %: 72 h", "excerpt": "as §1, §2, §3, §4, §5, §6, §7, §8"}, "[6]": {"system": "SXFO Saos-2", "experiment": "CellTiter-Blue Cell Viability Assay (Example 2), osteosarcoma", "assay_type": "cell-based, human", "conditions": "for T/C %: 72 h", "excerpt": "as §1, §2, §3, §4, §5, §6, §7, §8"}, "[7]": {"system": "20 human cancer-cell lines representing nine cancer types", "experiment": "CellTiter-Blue Cell Viability Assay (Example 2), whole panel", "assay_type": "cell-based", "excerpt": "as §1, §2, §3, §4, §5, §6, §7, §8"}, "[8]": {"conditions": "geometric mean over human cancer cell lines of Table 8"}}, "note": "Values joined by “and” are separate entries in the source; they are usually repeats but may differ in a detail not shown here. Equal entries are not always repeated. Where two headings read alike, the source gives them in different places."}
{"smiles": "CC(C)(O)Cn1nc(-c2ccccc2)c2c(Cl)c(-c3ccccc3)nnc21", "note": "[Compound 85]", "values": [{"measurement": "Absolute IC70", "setting": "[1]", "result": 445, "unit": "nM"}, {"measurement": "Relative IC70", "setting": "[1]", "result": 451, "unit": "nM"}, {"measurement": "T/C %", "setting": "[1]; 0.03 μM", "result": 97, "unit": "%"}, {"measurement": "T/C %", "setting": "[1]; 0.095 μM", "result": 91, "unit": "%"}, {"measurement": "T/C %", "setting": "[1]; 0.3 μM", "result": 82, "unit": "%"}, {"measurement": "T/C %", "setting": "[1]; 0.95 μM", "result": 0, "unit": "%"}, {"measurement": "T/C %", "setting": "[1]; 3.0 μM", "result": 0, "unit": "%"}, {"measurement": "IC50", "setting": "[1]; read-out: Absolute IC50", "result": 391, "unit": "nM"}, {"measurement": "IC50", "setting": "[1]; read-out: Relative IC50", "result": 399, "unit": "nM"}, {"measurement": "Absolute IC70", "setting": "[2]", "result": 925, "unit": "nM"}, {"measurement": "Relative IC70", "setting": "[2]", "result": 864, "unit": "nM"}, {"measurement": "T/C %", "setting": "[2]; 0.03 μM", "result": 99, "unit": "%"}, {"measurement": "T/C %", "setting": "[2]; 0.095 μM", "result": 97, "unit": "%"}, {"measurement": "T/C %", "setting": "[2]; 0.3 μM", "result": 101, "unit": "%"}, {"measurement": "T/C %", "setting": "[2]; 0.95 μM", "result": 27, "unit": "%"}, {"measurement": "T/C %", "setting": "[2]; 3.0 μM", "result": 16, "unit": "%"}, {"measurement": "IC50", "setting": "[2]; read-out: Absolute IC50", "result": 826, "unit": "nM"}, {"measurement": "IC50", "setting": "[2]; read-out: Relative IC50", "result": 799, "unit": "nM"}, {"measurement": "Absolute IC70", "setting": "[3]", "result": 1528, "unit": "nM"}, {"measurement": "Relative IC70", "setting": "[3]", "result": 1376, "unit": "nM"}, {"measurement": "T/C %", "setting": "[3]; 0.03 μM", "result": 100, "unit": "%"}, {"measurement": "T/C %", "setting": "[3]; 0.095 μM", "result": 110, "unit": "%"}, {"measurement": "T/C %", "setting": "[3]; 0.3 μM", "result": 102, "unit": "%"}, {"measurement": "T/C %", "setting": "[3]; 0.95 μM", "result": 11, "unit": "%"}, {"measurement": "T/C %", "setting": "[3]; 3.0 μM", "result": 6, "unit": "%"}, {"measurement": "IC50", "setting": "[3]; read-out: Absolute IC50", "result": 1090, "unit": "nM"}, {"measurement": "IC50", "setting": "[3]; read-out: Relative IC50", "result": 1010, "unit": "nM"}, {"measurement": "Absolute IC70", "setting": "[4]", "result": 1349, "unit": "nM"}, {"measurement": "Relative IC70", "setting": "[4]", "result": 1326, "unit": "nM"}, {"measurement": "T/C %", "setting": "[4]; 0.03 μM", "result": 104, "unit": "%"}, {"measurement": "T/C %", "setting": "[4]; 0.095 μM", "result": 103, "unit": "%"}, {"measurement": "T/C %", "setting": "[4]; 0.3 μM", "result": 103, "unit": "%"}, {"measurement": "T/C %", "setting": "[4]; 0.95 μM", "result": 2, "unit": "%"}, {"measurement": "T/C %", "setting": "[4]; 3.0 μM", "result": 1, "unit": "%"}, {"measurement": "IC50", "setting": "[4]; read-out: Absolute IC50", "result": 1100, "unit": "nM"}, {"measurement": "IC50", "setting": "[4]; read-out: Relative IC50", "result": 1080, "unit": "nM"}, {"measurement": "Absolute IC70", "setting": "[5]", "result": 532, "unit": "nM"}, {"measurement": "Relative IC70", "setting": "[5]", "result": 531, "unit": "nM"}, {"measurement": "T/C %", "setting": "[5]; 0.03 μM", "result": 101, "unit": "%"}, {"measurement": "T/C %", "setting": "[5]; 0.095 μM", "result": 97, "unit": "%"}, {"measurement": "T/C %", "setting": "[5]; 0.3 μM", "result": 91, "unit": "%"}, {"measurement": "T/C %", "setting": "[5]; 0.95 μM", "result": 2, "unit": "%"}, {"measurement": "T/C %", "setting": "[5]; 3.0 μM", "result": 1, "unit": "%"}, {"measurement": "IC50", "setting": "[5]; read-out: Absolute IC50", "result": 458, "unit": "nM"}, {"measurement": "IC50", "setting": "[5]; read-out: Relative IC50", "result": 458, "unit": "nM"}, {"measurement": "Absolute IC70", "setting": "[6]", "result": 747, "unit": "nM"}, {"measurement": "Relative IC70", "setting": "[6]", "result": 750, "unit": "nM"}, {"measurement": "T/C %", "setting": "[6]; 0.03 μM", "result": 97, "unit": "%"}, {"measurement": "T/C %", "setting": "[6]; 0.095 μM", "result": 93, "unit": "%"}, {"measurement": "T/C %", "setting": "[6]; 0.3 μM", "result": 99, "unit": "%"}, {"measurement": "T/C %", "setting": "[6]; 0.95 μM", "result": 1, "unit": "%"}, {"measurement": "T/C %", "setting": "[6]; 3.0 μM", "result": 0, "unit": "%"}, {"measurement": "IC50", "setting": "[6]; read-out: Absolute IC50", "result": 709, "unit": "nM"}, {"measurement": "IC50", "setting": "[6]; read-out: Relative IC50", "result": 712, "unit": "nM"}, {"measurement": "anti-cancer activity, concentration dependence", "setting": "[7]; all of the 20 human cancer cell lines tested", "result": "concentration dependent anti-cancer activity"}, {"measurement": "anti-cancer activity", "setting": "[7]; at concentration of 0.95 μM, 20 human cancer-cell lines, nine cancer types", "result": "significant anti-cancer activity"}, {"measurement": "geometric mean absolute IC70", "setting": "[7]; [8]", "result": 712, "unit": "nM"}, {"measurement": "geometric mean relative IC70", "setting": "[7]; [8]", "result": 675, "unit": "nM"}, {"measurement": "IC50", "setting": "[7]; geometric mean over human cancer cell lines of Table 8, read-out: geometric mean absolute IC50", "result": "596 nM and 600 nM"}, {"measurement": "IC50", "setting": "[7]; geometric mean over human cancer cell lines of Table 8, read-out: geometric mean relative IC50", "result": 583, "unit": "nM"}]}
